In PubChem BioAssay (NCI):
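All cell lines were grown in 96-well plates and treated with compound for 48 hours. TGI marks complete inhibition of growth.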

Tests used:
Assay in all cases: growth of human tumour cells (NCI), 48 h
MCF7 breast = system: MCF7 breast
HCT-15 colon = system: HCT-15 colon
HL-60(TB) leukemia = system: HL-60(TB) leukemia
M14 melanoma = system: M14 melanoma
LOX IMVI melanoma = system: LOX IMVI melanoma
SK-MEL-28 melanoma = system: SK-MEL-28 melanoma
KM12 colon = system: KM12 colon
RXF 393 renal = system: RXF 393 renal
COLO 205 colon = system: COLO 205 colon
MDA-MB-231 breast = system: MDA-MB-231 breast
T-47D breast = system: T-47D breast
SF-295 CNS = system: SF-295 CNS
DU-145 prostate = system: DU-145 prostate
A498 renal = system: A498 renal
786-0 renal = system: 786-0 renal
BT-549 breast = system: BT-549 breast

| Structure (SMILES) | TGI (MCF7 breast) [µM] | TGI (HCT-15 colon) [µM] | TGI (HL-60(TB) leukemia) [µM] | TGI (M14 melanoma) [µM] | TGI (LOX IMVI melanoma) [µM] | TGI (SK-MEL-28 melanoma) [µM] | TGI (KM12 colon) [µM] | TGI (RXF 393 renal) [µM] | TGI (COLO 205 colon) [µM] | TGI (MDA-MB-231 breast) [µM] | TGI (T-47D breast) [µM] | TGI (SF-295 CNS) [µM] | TGI (DU-145 prostate) [µM] | TGI (A498 renal) [µM] | TGI (786-0 renal) [µM] | TGI (BT-549 breast) [µM] |
| --- | --- | --- | --- | --- | --- | --- | --- | --- | --- | --- | --- | --- | --- | --- | --- | --- |
| O=[N+]([O-])c1cc2c(c3nonc13)OCCCCO2 | 24.2 | 13.7 | 5.15 | 17.9 | 12.6 | 22.5 | 20.7 | 20 | 17.9 | 12.1 | 60.5 | 31.6 | 28.2 | 47.6 | 10.7 |  |
| Cn1c(=O)c2c(no[n+]2[O-])c2ccccc21 | > 100 | 29.5 |  | 25.3 | 31.4 |  | 25.2 | 62 | 35.8 | 48 | 68.3 | 61.1 |  | 70.2 | 39.1 | 34.2 |
| Oc1ccc(-c2nc(-c3ccc(F)cc3)c(-c3ccc4ccccc4n3)[nH]2)cc1 | 18.7 | 23.6 | > 100 | 22.9 | 27.9 | 37.7 | 19.1 | 31.9 | 29.7 | 41.4 | 25.1 | 24 | 34.8 |  | 66 | 36.6 |
| CC(=O)Nc1ccc(-c2nc3ccccc3s2)cc1 | > 100 | > 100 | > 100 | > 100 | > 100 | > 100 | > 100 | 74.4 | > 100 | 96.1 | > 100 | > 100 | 40.1 | 38.4 | 64.8 |  |
| Cc1c(O)c(C)c2c(C)cn(C(=O)C(C)(C)C)c2c1C | 20.3 | 40.6 | > 100 | 30.5 | 92.2 | 28.7 | 27.2 | 41.6 | 30.3 | 28.5 | 90 | 32.9 | 43.9 | 30 | 36.3 |  |
| COc1ccc(/C=N/n2c(-c3ccccc3)n[nH]c2=O)cc1 | > 100 | > 100 |  | > 100 |  | > 100 | > 100 |  | > 100 | > 100 | > 100 | > 100 | > 100 | > 100 | > 100 | > 100 |
| COc1ccc(CCN=C2OCc3ccccc32)cc1OC | 90.4 | > 100 | 32.6 |  | > 100 | > 100 | > 100 |  | > 100 | > 100 | 86.6 | > 100 | > 100 | > 100 | > 100 | > 100 |
| C#CCN(CC#C)C(=O)C(=O)c1c[nH]c2ccc(OC)cc12 | 34.7 | 29.5 | 20.5 | 34.7 | 33.6 | 31 | 30.6 | 29.8 | 60 | 31 | 83.5 | 32.5 | > 100 | 29.5 | 31 |  |
